Laboratory results as given in US12338253B2, “Nitrogen-containing polycyclic fused ring compound, pharmaceutical composition thereof, preparation method therefor and use thereof” (APPLIED PHARMACEUTICAL SCIENCE, INC., priority 2019, dated 2025).

Tests used:
[1] = test system: TT Cell; assay: TT cell activity test (CelltiterGlo, 72 h); assay type: cell-based, human; details: for IC50: Homo sapiens, TT cell line, 72 h, CTG; for inhibitory activity on TT cells compared with cabozantinib: comparison in words
Method: 2.3 Data Processing % Inhibition (inhibition rate)=100*(HC−test compound well reading)/(HC−LC) • High control (HC, reading control without inhibition): 0.5% DMSO • Low control (LC, control with compound inhibition): 1 μM CEP-32496
The IC50 values were calculated using GraphPad Prism 6 software. Y=Bottom+(Top−Bottom)/(1+10^((Log IC50−X)*HillSlope)); • X: log of cpd concentration; • Y: % inhibition; • Top and Bottom: plateaus in same units as Y; • Log IC50: same log units as X; and • HillSlope: slope factor The Cell Results are Shown in Table 5: […]

[2] = target: RET G810R (Homo sapiens (Human), UniProt P07949, G810R); assay: HTRF kinase activity test, RET G810R; assay type: biochemical; details: for IC50: HTRF KinEASE-TK; for inhibitory activity on RET G810R compared with cabozantinib and selpercatinib (LOXO-292): comparison in words
Chain of RET G810R (P07949 29-1114 G810R): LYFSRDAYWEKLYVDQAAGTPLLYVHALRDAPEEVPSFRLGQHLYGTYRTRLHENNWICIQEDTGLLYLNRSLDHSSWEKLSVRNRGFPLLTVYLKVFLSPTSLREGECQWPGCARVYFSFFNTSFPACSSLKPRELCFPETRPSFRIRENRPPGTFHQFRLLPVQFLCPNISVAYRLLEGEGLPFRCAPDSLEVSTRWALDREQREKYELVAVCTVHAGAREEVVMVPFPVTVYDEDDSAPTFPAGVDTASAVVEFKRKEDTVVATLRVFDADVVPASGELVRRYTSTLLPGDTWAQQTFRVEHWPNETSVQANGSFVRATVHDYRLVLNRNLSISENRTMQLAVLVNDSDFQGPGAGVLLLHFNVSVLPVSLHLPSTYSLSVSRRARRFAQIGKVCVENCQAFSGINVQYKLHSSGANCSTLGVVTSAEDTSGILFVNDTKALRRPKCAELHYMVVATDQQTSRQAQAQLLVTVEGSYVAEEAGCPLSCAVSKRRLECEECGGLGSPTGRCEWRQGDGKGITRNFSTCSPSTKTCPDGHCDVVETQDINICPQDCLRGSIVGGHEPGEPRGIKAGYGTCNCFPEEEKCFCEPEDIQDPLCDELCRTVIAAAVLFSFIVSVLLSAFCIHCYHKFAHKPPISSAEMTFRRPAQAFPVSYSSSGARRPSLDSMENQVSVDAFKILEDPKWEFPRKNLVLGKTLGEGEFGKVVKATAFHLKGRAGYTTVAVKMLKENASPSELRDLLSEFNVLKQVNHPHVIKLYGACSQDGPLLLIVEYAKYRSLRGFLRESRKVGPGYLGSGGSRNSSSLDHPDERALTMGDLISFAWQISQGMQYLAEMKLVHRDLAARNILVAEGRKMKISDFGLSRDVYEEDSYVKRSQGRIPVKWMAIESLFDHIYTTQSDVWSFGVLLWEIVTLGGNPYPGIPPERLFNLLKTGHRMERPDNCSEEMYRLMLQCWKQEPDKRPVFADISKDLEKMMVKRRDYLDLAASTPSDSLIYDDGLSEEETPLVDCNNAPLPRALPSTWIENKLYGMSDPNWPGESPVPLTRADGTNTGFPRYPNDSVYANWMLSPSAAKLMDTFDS

| Structure (SMILES) | IC50 [1] [nM] | inhibitory activity on TT cells compared with cabozantinib [1] | IC50 [2] [nM] | inhibitory activity on RET G810R compared with cabozantinib and selpercatinib (LOXO-292) [2] |
| --- | --- | --- | --- | --- |
| COc1ccc(CN2C3CC2CN(c2ccc(-c4cc(OCCOC5CC5)cn5nc6[nH]ncc6c45)cn2)C3)cn1 [Compound 34] | 81.8 | significantly better than that of cabozantinib |  |  |
| COc1ccc(CN2C3CC2CN(c2ccc(-c4cc(OCCCl)cn5nc6[nH]ncc6c45)cn2)C3)cn1 [Compound 14, 6-(2-chloroethoxy)-4-(6-(6-((6-methoxypyridin-3-yl)methyl)-3,6-diazabicyclo[3.3.1]heptan-3-yl)pyridin-3-yl)-1H-pyrazolo[3′,4′:3,4]pyrazolo[1,5-a]pyridine] |  |  | 2.2 | significantly better than that of cabozantinib and selpercatinib (LOXO-292) |
| COc1ccc(CN2C3CC2CN(c2ccc(-c4cc(OC(C)C)cn5nc6[nH]ncc6c45)cn2)C3)cn1 [Compound 29] | 60.8 | significantly better than that of cabozantinib |  |  |
| O=C(Cc1ccccn1)N1CCN(c2ccc(-c3cc(OCCF)cn4nc5[nH]ncc5c34)cn2)CC1 [Compound 19, 1-(4-(5-(6-(2-fluoroethoxy)-1H-pyrazolo[3′,4′:3,4]pyrazolo[1,5-a]pyridin-4-yl)pyridin-2-yl)piperazin-1-yl)-2-(pyridin-2-yl)ethan-1-one] | 31.2 | significantly better than that of cabozantinib | 4.8 | significantly better than that of cabozantinib and selpercatinib (LOXO-292) |
| COc1ccc(CN2C3CC2CN(c2ccc(-c4cc(N)cn5nc6[nH]ncc6c45)cn2)C3)cn1 [Compound 6, 4-(6-(6-((6-methoxypyridin-3-yl)methyl)-3,6-diazabicyclo[3.3.1]heptan-3-yl)pyridin-3-yl)-1H-pyrazolo[3′,4′:3,4]pyrazolo[1,5-a]pyridin-6-amine] | 19.4 | significantly better than that of cabozantinib |  |  |
| COc1ccc(CN2C3CC2CN(c2ccc(-c4cc(OCC5CC5)cn5nc6[nH]ncc6c45)cn2)C3)cn1 [Compound 37, 6-(cyclopropylmethoxy)-4-(6-(6-((6-methoxypyridin-3-yl)methyl)-3,6-diazabicyclo[3.3.1]heptan-3-yl)pyridin-3-yl)-1H-pyrazolo[3′,4′:3,4]pyrazolo[1,5-a]pyridine] | 29.2 | significantly better than that of cabozantinib |  |  |
| COc1cc2nccc(Oc3ccc(NC(=O)C4(C(=O)Nc5ccc(F)cc5)CC4)cc3)c2cc1OC [Cabozantinib, reference compound] | 143 |  |  |  |
| CCOc1cc(-c2ccc(N3CC4CC(C3)N4Cc3ccc(OC)nc3)nc2)c2c3c(C)n[nH]c3nn2c1 [Compound 35] | 296 |  |  |  |
| COc1ccc(CN2C3CC2CN(c2ccc(-c4cc(OCC(C)(C)O)cn5nc6[nH]ncc6c45)cn2)C3)cn1 [Compound 8, 1-((4-(6-(6-((6-methoxypyridin-3-yl)methyl)-3,6-diazabicyclo[3.3.1]heptan-3-yl)pyridin-3-yl)-1H-pyrazolo[3′,4′:3,4]pyrazolo[1,5-a]pyridin-6-yl)oxy)-2-methylpropan-2-ol] | 14.4 | significantly better than that of cabozantinib |  |  |
| COc1ccc(CN2C3CC2CN(c2ccc(-c4cc(OCCBr)cn5nc6[nH]ncc6c45)cn2)C3)cn1 [Compound 15, 6-(2-bromoethoxy)-4-(6-(6-((6-methoxypyridin-3-yl)methyl)-3,6-diazabicyclo[3.3.1]heptan-3-yl)pyridin-3-yl)-1H-pyrazolo[3′,4′:3,4]pyrazolo[1,5-a]pyridine] |  |  | 7.9 | significantly better than that of cabozantinib and selpercatinib (LOXO-292) |
| COc1ccc(CN2C3CC2CN(c2ccc(-c4cc(C#N)cn5nc6[nH]ncc6c45)cn2)C3)cn1 [Compound 5, 4-(6-(6-((6-methoxypyridin-3-yl)methyl)-3,6-diazabicyclo[3.3.1]heptan-3-yl)pyridin-3-yl)-1H-pyrazolo[3′,4′:3,4]pyrazolo[1,5-a]pyridine-6-carbonitrile] | 11.8 | significantly better than that of cabozantinib | 38.4 | significantly better than that of cabozantinib and selpercatinib (LOXO-292) |
| COc1ccc(CN2C3CC2CN(c2ccc(-c4cc(OCCO)cn5nc6[nH]ncc6c45)cn2)C3)cn1 [Compound 10] | 12.3 | significantly better than that of cabozantinib | 3.8 | significantly better than that of cabozantinib and selpercatinib (LOXO-292) |
| CCCCOc1cc(-c2ccc(N3CC4CC(C3)N4Cc3ccc(OC)nc3)nc2)c2c3cn[nH]c3nn2c1 [Compound 11] | 16.8 | significantly better than that of cabozantinib | 10.1 | significantly better than that of cabozantinib and selpercatinib (LOXO-292) |
| COc1ccc(CN2C3CC2CN(c2ccc(-c4cc(OCC#N)cn5nc6[nH]ncc6c45)cn2)C3)cn1 [Compound 26, 2-((4-(6-(6-((6-methoxypyridin-3-yl)methyl)-3,6-diazabicyclo[3.3.1]heptan-3-yl)pyridin-3-yl)-1H-pyrazolo[3′,4′:3,4]pyrazolo[1,5-a]pyridin-6-yl)oxy)acetonitrile] | 22.7 | significantly better than that of cabozantinib | 2.1 | significantly better than that of cabozantinib and selpercatinib (LOXO-292) |
| COc1ccc(CN2C3CC2CN(c2ccc(-c4cc(OCCOCC5CC5)cn5nc6[nH]ncc6c45)cn2)C3)cn1 [Compound 28, 6-(2-(cyclopropylmethoxy)ethoxy)-4-(6-(6-((6-methoxypyridin-3-yl)methyl)-3,6-diazabicyclo[3.3.1]heptan-3-yl)pyridin-3-yl)-1H-pyrazolo[3′,4′:3,4]pyrazolo[1,5-a]pyridine] | 64.3 | significantly better than that of cabozantinib |  |  |
| COc1ccc(CN2C3CC2CN(c2ccc(-c4cc(OC[C@@H]5CNCCO5)cn5nc6[nH]ncc6c45)cn2)C3)cn1 [Compound 17] | 11.3 |  |  |  |
| COc1ccc(CN2C3CC2CN(c2ccc(-c4cc(OC(F)F)cn5nc6[nH]ncc6c45)cn2)C3)cn1 [Compound 33, 6-(difluoromethoxy)-4-(6-(6-((6-methoxypyridin-3-yl)methyl)-3,6-diazabicyclo[3.3.1]heptan-3-yl)pyridin-3-yl)-1H-pyrazolo[3′,4′:3,4]pyrazolo[1,5-a]pyridine] | 350 |  |  |  |
| COc1ccc(CN2C3CC2CN(c2ccc(-c4cc(Br)cn5nc6[nH]ncc6c45)cn2)C3)cn1 [Compound 2] | 42.2 | significantly better than that of cabozantinib |  |  |
